27 molecules from patent US20230322715A1, “BROAD SPECTRUM ANTI-CANCER COMPOUNDS” (The Regents of the University of California, priority 2019, published 2023) can be followed below.

Structures are written as SMILES. Values joined by “and” are separate entries in the source; they are usually repeats but may differ in a detail not shown here. Equal entries are not always repeated. Where two headings read alike, the source gives them in different places.

The target of one series is FTO (Homo sapiens (Human), UniProt Q9C0B1). The series is described as follows: Fluorescence enzymatic inhibition assay (m6A7-Broccoli RNA / DFHBI-1T) against FTO. The series is classed as biochemical. The procedure: In order to determine their efficacy as FTO inhibitors, the compounds were screened by a fluorescence enzymatic inhibition assay developed previously by the Jaffrey lab.^44 Briefly, a nonfluorescent methylated RNA substrate termed “m6A7-Broccoli” is incubated with FTO in the presence of 2-oxoglutarate (300 μM), (NH4)2Fe(SO4)2·6H2O (300 μM), and L-ascorbate (2 mM) for 2 hours at room temperature in reaction buffer (50 mM NaHEPES, pH 6).
Chain of FTO (Q9C0B1 whole entry): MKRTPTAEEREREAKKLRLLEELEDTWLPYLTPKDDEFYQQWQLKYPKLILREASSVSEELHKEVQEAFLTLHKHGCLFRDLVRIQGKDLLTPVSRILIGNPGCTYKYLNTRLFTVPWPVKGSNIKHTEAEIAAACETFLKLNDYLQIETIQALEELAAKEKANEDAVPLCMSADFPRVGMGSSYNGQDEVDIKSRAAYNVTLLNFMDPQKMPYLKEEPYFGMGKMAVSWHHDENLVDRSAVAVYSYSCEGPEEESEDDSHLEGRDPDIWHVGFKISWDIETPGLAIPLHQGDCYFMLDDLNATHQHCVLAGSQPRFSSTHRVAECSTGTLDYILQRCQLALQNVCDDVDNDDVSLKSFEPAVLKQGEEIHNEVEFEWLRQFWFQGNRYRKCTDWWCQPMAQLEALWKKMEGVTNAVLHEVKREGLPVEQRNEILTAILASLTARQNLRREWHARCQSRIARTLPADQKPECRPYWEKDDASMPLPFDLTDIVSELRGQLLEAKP
(§1) Inhibitors were added in concentrations ranging from 0.008-40 μM; all inhibitors were dissolved in DMSO and added to a final concentration of 0.2% DMSO. […] After incubation at room temperature for 2 hours, the plates were left at 4° C. overnight (16 hours) to allow DFHBI-1T to bind to A7-Broccoli RNA. […] Sigmoidal dose-response curves were fitted in GraphPad Prism 6. All assays were performed in triplicate, with additional repetitions added as necessary.

In the next series the target is ALKBH5 (Homo sapiens (Human), UniProt Q6P6C2). The series is described as follows: Fluorescence enzymatic inhibition assay (m6A7-Broccoli RNA / DFHBI-1T) against ALKBH5. The series is classed as biochemical. The procedure:
as §1

Series [1] can be described thus: elogD / log D determination.
Where [2] appears, read: Table 700 compounds, read-out: Enzymatic IC50 FTO.
Where [3] appears, read: Table 700 compounds, read-out: Enzymatic IC50 ALKBH5.
The mark [4] stands for this setting: m6A7-Broccoli fluorescence assay, 0.250 μM ALKBH5, read-out: Enzymatic IC50 ALKBH5.
[5] abbreviates: Table 800 compounds, read-out: FTO IC50.
The mark [6] stands for this setting: Table 800 compounds, read-out: ALKBH5 IC50.
Where [7] appears, read: m6A7-Broccoli fluorescence assay, 0.250 μM FTO, inhibitor up to 40 μM, triplicate, read-out: Enzymatic IC50 FTO.

One may read the IC50 as the concentration needed to halve the response being measured. In general, chromatographic logD refers to lipophilicity estimated from chromatographic retention. Lower therefore signals lower lipophilicity.

Chain of ALKBH5 (Q6P6C2 whole entry): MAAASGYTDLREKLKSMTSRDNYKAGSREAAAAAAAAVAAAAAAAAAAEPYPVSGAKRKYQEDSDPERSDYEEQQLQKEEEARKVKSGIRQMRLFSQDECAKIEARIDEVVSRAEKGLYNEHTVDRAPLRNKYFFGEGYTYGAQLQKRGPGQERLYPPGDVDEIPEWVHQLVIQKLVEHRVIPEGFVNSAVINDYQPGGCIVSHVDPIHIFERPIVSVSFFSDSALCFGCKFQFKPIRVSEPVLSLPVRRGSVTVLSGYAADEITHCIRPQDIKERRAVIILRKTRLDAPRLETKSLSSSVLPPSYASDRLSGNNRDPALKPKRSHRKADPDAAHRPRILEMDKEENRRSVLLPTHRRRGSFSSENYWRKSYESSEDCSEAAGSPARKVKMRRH

On to `COC(=O)C1COC(c2ccccc2O)N1` (centres unmarked) [ALK-16], for which the concentration for half-maximal inhibition (IC50) was more than 40 µM at FTO (setting [2]); 8.2 ± 2.3 µM at ALKBH5 (ALK series, permeability data and IC50 tables, read-out: Enzymatic IC50 ALKBH5); 8.2 ± 2.3 µM on ALKBH5 (setting [3]). In series [1] (Table 700 compounds), this molecule showed an elogD of 1.44.
As for `c1ccc(-c2ccc(CNCC3(N4CCCC4)COC3)s2)cc1` [TR-FTO-38], the half-maximal inhibitory concentration (IC50) at ALKBH5 (setting [4]) amounted to 3.4 µM. Also, the elogD in series [1] came out at 1.57.
Turning to `CC(=O)c1ccc(S(=O)(=O)NCC2CCCOC2)cc1` (centres unmarked) [TR-ALKBH5-05], the half-inhibitory concentration (IC50) at FTO (setting [5]) is more than 40 µM; at ALKBH5 (setting [6]), 1.9 µM. The elogD in series [1] (Table 800 compounds) is 1.12.
For `Cc1ccc(CNCC2(N3CCCC3)COC2)cc1C` [TR-FTO-30], at ALKBH5 (setting [4]), the IC50 is 9.9 µM. Besides, the elogD in series [1] is reported as 0.87.
Regarding `O=S(=O)(NCc1ccccn1)c1ccc(OC(F)(F)F)cc1` [TR-ALKBH5-32], the figures for the IC50 on FTO (setting [5]) and on ALKBH5 (setting [6]) were more than 40 µM and 2.2 µM, respectively. In addition, the elogD in series [1] (Table 800 compounds) came to 2.25.
In the case of `FC(F)(F)c1cccc(CNCC2(N3CCCC3)COC2)c1` [TR-FTO-02], the IC50 on FTO (setting [7]) is 4.3 µM; at ALKBH5 (setting [4]), 19.5 µM. The same molecule yielded an elogD in series [1] of 1.02.
Regarding `CC1(C)[C@H](C(=O)O)N2C(=O)C[C@H]2S1(=O)=O` [ALK-09], the IC50 on FTO (setting [2]) is more than 40 µM; on ALKBH5 (setting [3]), 3.8 µM and 5.7 µM. The same molecule yielded an elogD in series [1] (Table 700 compounds) of 0.41.
Regarding `COc1ccccc1C(=O)N1CC(Oc2ccccc2)CC1C(=O)Nc1ccccc1SC` (centres unmarked) [TR-FTO 2-08], at FTO (read-out: Enzymatic IC50 FTO), the half-inhibitory concentration (IC50) was 10.3 ± 2.29 µM.
In the case of `COC(=O)C1COC(c2ccc(OC)c(Cl)c2)N1` (centres unmarked) [ALK-23], the IC50 on FTO (setting [2]) is more than 40 µM; on ALKBH5 (setting [3]) it was 2.8 ± 0.5 µM. The molecule also registered an elogD in series [1] (Table 700 compounds) of 3.01.
In the case of `COc1ncc(-c2ccc3cc(O)ccc3c2)cn1` [FTO-2, 6-(2-methoxypyrimidin-5-yl)naphthalen-2-ol], the IC50 at ALKBH5 (setting [4]) was 85.5 µM.
For the molecule `COC(=O)C1COC(c2ccc(-c3ccccc3)s2)N1` (centres unmarked) [ALK-25], the IC50 is more than 40 µM on FTO (setting [2]) and 0.9 ± 0.2 µM on ALKBH5 (setting [3]). In series [1] (Table 700 compounds), the elogD amounted to 1.17.
In the case of `CC1(C)SCC(C)(C(=O)O)N1C(N)=O` (centres unmarked) [ALK-05], the half-maximal inhibitory concentration (IC50) at FTO (setting [2]) was more than 40 µM; on ALKBH5 (setting [3]) it was 19.8 ± 1.8 µM. In addition, the elogD in series [1] (Table 700 compounds) stood at 0.16.
Regarding `O=S(=O)(Nc1cccc(O)c1)c1ccc(OC(F)(F)F)cc1` [TR-ALKBH5-39], the values for the IC50 at FTO (setting [5]) and on ALKBH5 (setting [6]) were more than 40 µM and 3.1 µM, respectively. Besides, the elogD in series [1] (Table 800 compounds) was 1.60.
With `O=C(O)[C@H]1NCCS1` [ALK-06], the concentration for half-maximal inhibition (IC50) at FTO (setting [2]) is more than 40 µM; at ALKBH5 (setting [3]), 8.8 µM and 7.95 µM. Further, in series [1] (Table 700 compounds), the elogD was 0.89.
As for `COC(=O)C1COC(c2ccc(O)cc2)N1` (centres unmarked) [ALK-13], the half-maximal inhibitory concentration (IC50) on FTO (setting [2]) was more than 40 µM; on ALKBH5 (setting [3]), 6.7 ± 1.8 µM. The molecule further had an elogD in series [1] (Table 700 compounds) of 2.12.
On to `COc1ccccc1C(=O)N1CC(Oc2ccccc2)CC1C(=O)Nc1ccc(C)c(C)c1` (centres unmarked) [TR-FTO 2-02], for which, on FTO (read-out: Enzymatic IC50 FTO), the IC50 worked out at 0.19 ± 0.03 µM.
For `O=S(=O)(Nc1cc(Cl)ccc1O)c1ccc(OC(F)(F)F)cc1` [TR-ALKBH5-29], the 50% inhibitory concentration (IC50) on FTO (setting [5]) was more than 40 µM; on ALKBH5 (setting [6]) it was 0.11 µM. Besides, in series [1] (Table 800 compounds), the elogD amounted to 0.88.
Regarding `CCOC(=O)C1CC1C1NCCS1` (centres unmarked) [ALK-01], the IC50 at FTO (setting [2]) is 103 µM and > 40 µM; on ALKBH5 (setting [3]), 17.5 µM. This molecule also gave an elogD in series [1] (Table 700 compounds) of 0.58.
Regarding `c1ccc2c(CNCC3(N4CCCC4)COC3)c[nH]c2c1` [TR-FTO-13], the IC50 at FTO (setting [7]) is 1 µM; on ALKBH5 (setting [4]), more than 40 µM.
`Fc1ccc2c(CNCC3(N4CCC(F)C4)COC3)c[nH]c2c1` (centres unmarked) [TR-FTO-44]: the chromatographic logD in series [1] was 0.95.
Consider `O=S(=O)(Nc1ccc(F)c(Cl)c1)c1ccc(OC(F)(F)F)cc1` [TR-ALKBH5-38], for which the figures for the IC50 at FTO (setting [5]) and on ALKBH5 (setting [6]) were 27.6 µM and 1.9 µM, respectively. The elogD in series [1] (Table 800 compounds) came out at 2.58.
Regarding `Cc1ccc(NS(=O)(=O)c2ccc(OC(F)(F)F)cc2)cc1C` [TR-ALKBH5-34], the half-inhibitory concentration (IC50) on FTO (setting [5]) was more than 40 µM; on ALKBH5 (setting [6]), 23.3 µM. The same molecule displayed an elogD in series [1] (Table 800 compounds) of 0.60.
Consider `COc1ccc(CNC(=O)C2CC(Oc3ccccc3)CN2C(=O)c2ccccc2OC)cc1` (centres unmarked) [TR-FTO 2-03], for which the IC50 at FTO (read-out: Enzymatic IC50 FTO) was determined as 1.24 ± 0.65 µM.
In the case of `Fc1cccc2[nH]cc(CNCC3(N4CCCC4)COC3)c12` [TR-FTO-17], the 50% inhibitory concentration (IC50) was 1.3 µM at FTO (setting [7]) and 2.5 µM on ALKBH5 (setting [4]).
For `COc1ccccc1C(=O)N1CC(Oc2ccccc2)CC1C(=O)NCc1ccccn1` (centres unmarked) [TR-FTO 2-06], the 50% inhibitory concentration (IC50) at FTO (read-out: Enzymatic IC50 FTO) came out at 12.5 ± 2.7 µM.
Take `CCN(CC)c1ccc(C2NC(C(=O)OC)CS2)c(O)c1` (centres unmarked) [ALK-30]: the IC50 on FTO (setting [2]) is more than 40 µM; on ALKBH5 (setting [3]) it was 1.4 ± 0.4 µM. Besides, the elogD in series [1] (Table 700 compounds) was determined as 0.67.
Consider `Fc1cccc2c(CNCC3(N4CCCC4)COC3)c[nH]c12` [TR-FTO-16], for which the IC50 is 2.2 µM at FTO (setting [7]) and 0.87 µM on ALKBH5 (setting [4]).
